Measured values published in article PMC5187884, “In Vitro Antitumor Active Gold(I) Triphenylphosphane Complexes Containing 7-Azaindoles” (International Journal of Molecular Sciences, 2016).

Legend:
[1] = test system: A2780 human ovarian carcinoma cell line; assay: In vitro cytotoxicity testing (MTT assay), A2780; format: cell-based; conditions: 24 h exposure time; for IC50: MTT assay, read-out: IC50 ± SD, A2780
Protocol: Human A2780 ovarian carcinoma, A2780R cisplatin-resistant ovarian carcinoma and MRC-5 normal fibroblast cell lines were supplied by the European Collection of Cell Cultures (ECACC). The cell lines were cultured, according to the supplier´s instructions, in RPMI-1640 medium supplemented with 10% of fetal calf serum, 1% of 2 mM glutamine, and 1% penicillin/streptomycin. All cell lines were grown as adherent monolayers at 37 °C and 5% CO2 in a humidified atmosphere.

[2] = test system: A2780R cisplatin-resistant ovarian carcinoma cell line; assay: In vitro cytotoxicity testing (MTT assay), A2780R; format: cell-based, human; conditions: 24 h exposure time; for IC50: MTT assay, read-out: IC50 ± SD, A2780R
Protocol: (§1) The cell lines were cultured, according to the supplier´s instructions, in RPMI-1640 medium supplemented with 10% of fetal calf serum, 1% of 2 mM glutamine, and 1% penicillin/streptomycin. All cell lines were grown as adherent monolayers at 37 °C and 5% CO2 in a humidified atmosphere.

[3] = test system: MRC-5 normal fibroblast cell line; assay: In vitro cytotoxicity testing (MTT assay), MRC-5; format: cell-based, human; conditions: 24 h exposure time; for IC50: MTT assay, read-out: IC50 ± SD, MRC5
Protocol: as §1

[4] = test system: A2780 human ovarian carcinoma cells; assay: Cell cycle analysis by flow cytometry (PI/RNase staining); format: cell-based; conditions: A2780 cells treated at IC50 concentration, 24 h; for S cell cycle phase population: control 9.0% ± 1.9%; for G2 cell cycle phase population: control 24.0% ± 2.6%; for G0/G1 cell cycle phase population: control 66.3% ± 3.8%
Protocol: The obtained results are depicted in Figure 4.
A2780 cells (1.0 × 10^6 per well) were pre-incubated in a six-well plate for 24 h, as described above. […] After 24 h, floating cells were collected and attached cells were harvested using trypsin/EDTA in PBS. Total cells were washed twice with PBS and fixed in 70% ethanol. Cells were resuspended in PBS and DNA staining was achieved by a solution of propidium iodide (PI) supplemented with RNase A (30 min, 25 °C, in the dark). After that, the cells were washed (PBS), resuspended (PBS), and DNA content was measured using flow cytometry (CytoFlex, Beckman Coulter, Brea, CA, USA) detecting emission of DNA-bound PI (maximum at 617 nm) after excitation at 535 nm. The data were analysed using CytExpert^TM software (Beckman Coulter).

[5] = Solubility
[6] = Solution behaviour in water/DMF mixture (1H and 31P-NMR); format: physicochemical; conditions: 50% DMF-d7/50% D2O, ca. 1 mM, 48 h at ambient temperature
Protocol: Only one set of ^1H-NMR signals (e.g., C3–H signal at 6.50 ppm) and one ^31P-NMR signal (34.8 ppm) were detected on the fresh solution, and no changes were observed even after 48 h of standing at ambient temperature. The positions of the ^1H and ^31P-NMR signals detected on the solution of 8 in the 50% DMF-d7/50% D2O mixture were different from those of free H2Me4Claza (C3–H signal at 6.32 ppm; Figure 3), PPh3 (^31P-NMR signal at −4.7 ppm), the oxidized triphenylphosphane (O=PPh3; ^31P-NMR signal at 32.4 ppm) or [AuCl(PPh3)] (^31P-NMR signal at 34.2 ppm) dissolved in the same mixture of solvents (Figure S6).
(§2) Complex 8 and [AuCl(PPh3)] […] Similar solutions were prepared with 1 or 5 mol equivs of GSH, Cys, or BSA. ^1H and ^31P-NMR spectra were recorded at different time points over 48 h at 300 K. The obtained ^1H-NMR spectra were calibrated against the residual signal of water found at 4.75 ppm, while the ^31P-NMR spectra were referenced as described above.

[7] = biological target: T1, bovine serum albumin (BSA) (Bos taurus, UniProt P02769); assay: Interaction study with bovine serum albumin (NMR); conditions: 50% DMF-d7/50% D2O
T1 construct: purchased Sigma-Aldrich Co. (Prague, Czech Republic) and Fisher-Scientific Co. (Pardubice, Czech Republic)
Protocol: An interaction of 8 with bovine serum albumin (BSA) resulted immediately in a white turbidity, which was subsequently removed by centrifugation (13,000 rpm for 3 min; Mini Spin, Eppendorf AG, Hamburg, Germany). The ^1H-NMR spectrum recorded on the obtained supernatant contained the signals of the released N-donor ligand, with the signal positions (e.g., C3–H signal at 6.36 ppm) being consistent with those detected for free H2Me4Claza in the same mixture of solvents (Figure S8). No signals were detected in the ^31P-NMR spectra recorded on the mentioned supernatant.
as §2

[8] = Stability in DMF-d7 (1H and 31P-NMR); format: physicochemical; conditions: 1H-NMR and 31P-NMR, ambient temperature
[9] = test system: A2780 cells; parameters: method as in PMID 22322463; conditions: cited from earlier work
[10] = test system: A2780 cells with acquired resistance to cisplatin; parameters: method as in PMID 22322463; conditions: cited from earlier work
[11] = test system: A549 human lung carcinoma cells; parameters: method as in PMID 24763048; conditions: as compared with untreated cells; cited from earlier work
[12] = test system: U266 human myeloma cells; parameters: method as in PMID 20542334; conditions: cited from earlier work

T1 sequence (P02769 25-607): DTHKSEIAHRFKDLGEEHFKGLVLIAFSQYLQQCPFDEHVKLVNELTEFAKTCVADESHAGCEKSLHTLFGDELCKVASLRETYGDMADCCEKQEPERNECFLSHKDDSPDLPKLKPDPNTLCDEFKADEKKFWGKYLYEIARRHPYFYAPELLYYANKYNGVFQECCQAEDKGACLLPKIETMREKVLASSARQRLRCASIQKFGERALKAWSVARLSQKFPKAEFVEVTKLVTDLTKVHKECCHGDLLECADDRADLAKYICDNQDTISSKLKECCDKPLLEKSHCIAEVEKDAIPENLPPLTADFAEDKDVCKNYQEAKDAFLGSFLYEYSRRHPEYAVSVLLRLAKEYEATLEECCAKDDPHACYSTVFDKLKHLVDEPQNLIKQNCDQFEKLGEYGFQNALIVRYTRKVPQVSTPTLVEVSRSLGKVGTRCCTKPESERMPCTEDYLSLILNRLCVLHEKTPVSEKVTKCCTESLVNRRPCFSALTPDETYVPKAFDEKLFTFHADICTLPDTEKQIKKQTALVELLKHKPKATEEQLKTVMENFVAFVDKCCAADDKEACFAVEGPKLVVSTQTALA

| SMILES | IC50 [1] [µM] | IC50 [2] [µM] | IC50 [3] [µM] | RF = resistance factor (IC50(A2780R)/IC50(A2780)) [2] | SI = selectivity index (IC50(MRC5)/IC50(A2780)) [3] | in vitro cytotoxicity against A2780 compared with cisplatin [1] | other results |
| --- | --- | --- | --- | --- | --- | --- | --- |
| N.N.[Cl][Pt][Cl] [Cisplatin, cisplatin, reference compound] | 20.3 ± 2.3 | > 50 | > 50 |  |  |  | cell cycle modification (phase arrest) [4]: S-arrest; S cell cycle phase population [4]: 44.8% ± 2.9% |
| c1ccc([P]([Au][n]2ccc3cccnc32)(c2ccccc2)c2ccccc2)cc1 [Complex 1, [Au(aza)(PPh3)]] | 3.8 ± 1.1 | 4.4 ± 0.8 | 7.7 ± 1.7 | 1.2 | 2.0 |  | cell cycle modification (phase arrest) [4]: G2-arrest; S cell cycle phase population [4]: 7.2% ± 0.9%; G2 cell cycle phase population [4]: 44.0% ± 2.3%; G0/G1 cell cycle phase population [4]: 46.0% ± 2.8%; solubility in the used medium ([5]; cell culture medium, dilution of 50 mM DMF stock): less soluble |
| Clc1c[n]([Au][P](c2ccccc2)(c2ccccc2)c2ccccc2)c2ncccc12 [Complex 2, [Au(3Claza)(PPh3)]] | 22.4 ± 5.7 | 21.7 ± 0.8 | 31.4 ± 4.9 | 1.0 | 1.4 | comparable |  |
| Brc1c[n]([Au][P](c2ccccc2)(c2ccccc2)c2ccccc2)c2ncccc12 [Complex 3, [Au(3Braza)(PPh3)]] | 23.3 ± 3.4 | 21.3 ± 0.8 | 27.3 ± 1.7 | 0.9 | 1.2 | comparable |  |
| Ic1c[n]([Au][P](c2ccccc2)(c2ccccc2)c2ccccc2)c2ncccc12 [Complex 4, [Au(3Iaza)(PPh3)]] | 3.5 ± 0.4 | 11 ± 4.7 | 29.2 ± 5.9 |  | 8.3 |  |  |
| Brc1cnc2c(cc[n]2[Au][P](c2ccccc2)(c2ccccc2)c2ccccc2)c1 [Complex 5, [Au(5Braza)(PPh3)]] | 3.1 ± 0.5 | 14.4 ± 3.3 | 26 ± 4.2 |  | 8.4 |  | cell cycle modification (phase arrest) [4]: G2-arrest; S cell cycle phase population [4]: 9.1% ± 2.1%; G2 cell cycle phase population [4]: 30.4% ± 2.9%; G0/G1 cell cycle phase population [4]: 58.1% ± 5.8% |
| Clc1c[n]([Au][P](c2ccccc2)(c2ccccc2)c2ccccc2)c2ncc(Br)cc12 [Complex 6, [Au(3Cl5Braza)(PPh3)]] | 22.9 ± 2.3 | 13.8 ± 2.1 | 26.5 ± 3.7 | 0.6 | 1.2 | comparable |  |
| Brc1cnc2c(c1)c(I)c[n]2[Au][P](c1ccccc1)(c1ccccc1)c1ccccc1 [Complex 7, [Au(3I5Braza)(PPh3)]] | 20.2 ± 2.5 | 22.1 ± 0.3 | 27.3 ± 2.6 | 1.1 | 1.4 | comparable |  |
| Cc1cc2c(Cl)ccnc2[n]1[Au][P](c1ccccc1)(c1ccccc1)c1ccccc1 [Complex 8, [Au(2Me4Claza)(PPh3)]] | 2.8 ± 0.7 | 8.9 ± 3.8 | 26.9 ± 3.6 |  | 9.6 | more than seven times higher | hydrolytic stability [6]: hydrolytically stable; interaction with BSA [7]: replaces the N-donor ligand 2Me4Claza; solubility in water [5]: low solubility in water |
| [Cl][Au].c1ccc(P(c2ccccc2)c2ccccc2)cc1 [[AuCl(PPh3)], chlorido-triphenylphosphanegold(I) complex] |  |  |  |  |  |  | stability in DMF-d7 [8]: low stability |
| CC[PH](CC)(CC)[Au][S][C@@H]1O[C@H](COC(C)=O)[C@@H](OC(C)=O)[C@H](OC(C)=O)[C@H]1OC(C)=O [auranofin, triethylphosphane-(2,3,4,6-tetra-O-acetyl-β-D-thiopyranosato)gold(I) complex] |  |  |  |  |  |  | potency in vitro against A2780 cells relative to cisplatin [9]: ca. three-fold higher; RF (resistance factor) [10]: ca. 0.9; sub-G1 cell cycle phase population increase [11]: > 13%; cell cycle arrest [12]: G0/G1 cell cycle arrest |
